Measured values reported in ChEMBL document CHEMBL1139489, “Design and NMR characterization of active analogues of compstatin containing non-natural amino acids” (J Med Chem, 2005).

The molecules below were run against Complement C3 (Homo sapiens, UniProt P01024) (assay: Inhibitory concentration for human complement component C3 activation).
Complement C3, sequence (P01024 23-667 limits assumed): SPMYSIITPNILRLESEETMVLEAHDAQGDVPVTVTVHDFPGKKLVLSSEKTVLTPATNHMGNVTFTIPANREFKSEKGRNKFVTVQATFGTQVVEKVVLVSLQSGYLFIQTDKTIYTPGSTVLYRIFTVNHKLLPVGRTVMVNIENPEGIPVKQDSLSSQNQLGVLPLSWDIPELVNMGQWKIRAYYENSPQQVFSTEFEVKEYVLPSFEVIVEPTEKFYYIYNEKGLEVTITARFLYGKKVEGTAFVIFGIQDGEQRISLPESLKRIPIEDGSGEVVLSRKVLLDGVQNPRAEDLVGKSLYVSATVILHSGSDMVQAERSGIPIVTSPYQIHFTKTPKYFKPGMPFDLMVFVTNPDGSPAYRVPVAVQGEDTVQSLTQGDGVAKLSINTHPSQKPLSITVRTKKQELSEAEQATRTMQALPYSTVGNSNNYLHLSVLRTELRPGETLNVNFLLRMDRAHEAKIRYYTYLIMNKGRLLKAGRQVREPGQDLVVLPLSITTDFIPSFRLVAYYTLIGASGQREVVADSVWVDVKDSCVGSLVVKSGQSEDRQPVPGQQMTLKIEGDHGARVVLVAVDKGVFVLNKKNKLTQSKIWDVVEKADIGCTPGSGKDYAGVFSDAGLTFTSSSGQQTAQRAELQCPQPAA
Complement C3, sequence (P01024 672-1663 limits assumed): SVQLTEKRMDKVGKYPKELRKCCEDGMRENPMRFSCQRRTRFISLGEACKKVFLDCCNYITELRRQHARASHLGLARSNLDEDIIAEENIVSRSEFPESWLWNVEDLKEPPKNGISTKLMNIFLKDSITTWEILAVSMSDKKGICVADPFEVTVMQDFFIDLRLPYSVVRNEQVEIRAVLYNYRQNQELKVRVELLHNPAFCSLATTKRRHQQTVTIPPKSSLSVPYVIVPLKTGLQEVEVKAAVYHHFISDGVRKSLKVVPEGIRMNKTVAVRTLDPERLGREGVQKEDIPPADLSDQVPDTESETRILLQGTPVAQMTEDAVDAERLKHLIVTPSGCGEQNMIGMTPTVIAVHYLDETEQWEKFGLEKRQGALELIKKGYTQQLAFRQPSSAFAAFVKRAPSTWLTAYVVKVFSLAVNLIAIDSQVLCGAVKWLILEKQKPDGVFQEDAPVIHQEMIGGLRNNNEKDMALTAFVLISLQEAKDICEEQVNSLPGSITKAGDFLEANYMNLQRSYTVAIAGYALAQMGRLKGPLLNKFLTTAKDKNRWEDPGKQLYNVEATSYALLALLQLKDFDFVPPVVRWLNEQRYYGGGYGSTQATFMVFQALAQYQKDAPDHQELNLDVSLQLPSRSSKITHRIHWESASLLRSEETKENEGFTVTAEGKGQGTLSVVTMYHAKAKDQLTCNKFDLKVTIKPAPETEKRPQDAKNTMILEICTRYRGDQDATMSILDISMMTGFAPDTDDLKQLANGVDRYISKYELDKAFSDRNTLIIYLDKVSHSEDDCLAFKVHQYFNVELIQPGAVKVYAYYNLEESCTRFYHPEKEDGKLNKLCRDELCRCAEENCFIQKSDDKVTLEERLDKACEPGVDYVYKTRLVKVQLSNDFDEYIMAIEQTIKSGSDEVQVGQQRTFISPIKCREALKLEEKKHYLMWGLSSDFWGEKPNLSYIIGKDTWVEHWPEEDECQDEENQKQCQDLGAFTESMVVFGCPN

IC50 [µM] | Compound
50.9 | CC[C@H](C)[C@H](NC(C)=O)C(=O)N[C@H]1CSSC[C@@H](C(=O)N[C@H](C(N)=O)[C@@H](C)O)NC(=O)[C@H](CCCN=C(N)N)NC(=O)[C@H](Cc2c[nH]cn2)NC(=O)[C@H](Cc2c[nH]cn2)NC(=O)CNC(=O)[C@H](Cc2c[nH]c3ccccc23)NC(=O)[C@H](CC(=O)O)NC(=O)[C@H](CCC(N)=O)NC(=O)[C@H](CO)NC(=O)[C@H](C(C)C)NC1=O
10.5 | CC[C@H](C)[C@H](NC(C)=O)C(=O)N[C@H]1CSSC[C@@H](C(=O)N[C@H](C(N)=O)[C@@H](C)O)NC(=O)[C@H](CCCNC(=N)N)NC(=O)[C@H](Cc2cnc[nH]2)NC(=O)[C@H](Cc2cnc[nH]2)NC(=O)CNC(=O)[C@H](Cc2c[nH]c3ccccc23)NC(=O)[C@H](CC(=O)O)NC(=O)[C@H](CCC(N)=O)NC(=O)[C@H](Cc2cnc[nH]2)NC(=O)[C@H](C(C)C)NC1=O
0.8 | CC[C@H](C)[C@H](NC(C)=O)C(=O)N[C@H]1CSSC[C@@H](C(=O)N[C@H](C(N)=O)[C@@H](C)O)NC(=O)[C@H](CCCN=C(N)N)NC(=O)[C@H](Cc2c[nH]cn2)NC(=O)[C@H](C)NC(=O)CNC(=O)[C@H](Cc2c[nH]c3ccccc23)NC(=O)[C@H](CC(=O)O)NC(=O)[C@H](CCC(N)=O)NC(=O)[C@H](Cc2csc3ccccc23)NC(=O)[C@H](C(C)C)NC1=O
3.1 | CC[C@H](C)[C@H](NC(C)=O)C(=O)N[C@H]1CSSC[C@@H](C(=O)N[C@H](C(N)=O)[C@@H](C)O)NC(=O)[C@H](CCCNC(=N)N)NC(=O)[C@H](Cc2cnc[nH]2)NC(=O)[C@H](Cc2c[nH]c3ccccc23)NC(=O)CNC(=O)[C@H](Cc2c[nH]c3ccccc23)NC(=O)[C@H](CC(=O)O)NC(=O)[C@H](CCC(N)=O)NC(=O)[C@H](Cc2c[nH]c3ccccc23)NC(=O)[C@H](C(C)C)NC1=O
1.1 | CC[C@H](C)[C@H](NC(C)=O)C(=O)N[C@H]1CSSC[C@@H](C(=O)N[C@H](C(=O)O)[C@@H](C)O)NC(=O)[C@H](CCCN=C(N)N)NC(=O)[C@H](Cc2c[nH]cn2)NC(=O)[C@H](C)NC(=O)CNC(=O)[C@H](Cc2c[nH]c3ccccc23)NC(=O)[C@H](CC(=O)O)NC(=O)[C@H](CCC(N)=O)NC(=O)[C@H](Cc2ccc(C(=O)c3ccccc3)cc2)NC(=O)[C@H](C(C)C)NC1=O
12.4 | CC[C@H](C)[C@H](NC(C)=O)C(=O)N[C@H]1CSSC[C@@H](C(=O)N[C@H](C(N)=O)[C@@H](C)O)NC(=O)[C@H](CCCNC(=N)N)NC(=O)[C@H](Cc2cnc[nH]2)NC(=O)[C@H](C)NC(=O)CNC(=O)[C@H](Cc2c[nH]c3ccccc23)NC(=O)[C@H](CC(=O)O)NC(=O)[C@H](CCC(N)=O)NC(=O)[C@H](C(C)C)NC(=O)[C@H](C(C)C)NC1=O
> 1000 | CC[C@H](C)[C@H](NC(C)=O)C(=O)N[C@H]1CSSC[C@@H](C(N)=O)NC(=O)[C@H](CCCN=C(N)N)NC(=O)[C@H](Cc2c[nH]cn2)NC(=O)[C@H](Cc2c[nH]cn2)NC(=O)CNC(=O)[C@@H](Cc2c[nH]c3ccccc23)NC(=O)[C@H](CC(=O)O)NC(=O)[C@H](CCC(N)=O)NC(=O)[C@H](C(C)C)NC(=O)[C@H](C(C)C)NC1=O
68.3 | CC[C@H](C)[C@H](NC(C)=O)C(=O)N[C@H]1CSSC[C@@H](C(=O)N[C@H](C(N)=O)[C@@H](C)O)NC(=O)[C@H](CCCNC(=N)N)NC(=O)[C@H](Cc2cnc[nH]2)NC(=O)[C@H](Cc2cnc[nH]2)NC(=O)CNC(=O)[C@H](Cc2c[nH]c3ccccc23)NC(=O)[C@H](CC(=O)O)NC(=O)[C@H](CCC(N)=O)NC(=O)[C@H]([C@@H](C)O)NC(=O)[C@H](C(C)C)NC1=O
0.5 | CC[C@H](C)[C@H](NC(C)=O)C(=O)N[C@H]1CSSC[C@@H](C(=O)N[C@H](C(N)=O)[C@@H](C)O)NC(=O)[C@H](CCCNC(=N)N)NC(=O)[C@H](Cc2c[nH]cn2)NC(=O)[C@H](C)NC(=O)CNC(=O)[C@H](Cc2c[nH]c3ccccc23)NC(=O)[C@H](CC(=O)O)NC(=O)[C@H](CCC(N)=O)NC(=O)[C@H](Cc2ccc3ccccc3c2)NC(=O)[C@H](C(C)C)NC1=O
1.4 | CC[C@H](C)[C@H](NC(C)=O)C(=O)N[C@H]1CSSC[C@@H](C(=O)N[C@H](C(=O)O)[C@@H](C)O)NC(=O)[C@H](CCCNC(=N)N)NC(=O)[C@H](Cc2cnc[nH]2)NC(=O)[C@H](C)NC(=O)CNC(=O)[C@H](Cc2c[nH]c3ccccc23)NC(=O)[C@H](CC(=O)O)NC(=O)[C@H](CCC(N)=O)NC(=O)[C@H](Cc2ccc3ccccc3c2)NC(=O)[C@H](C(C)C)NC1=O
> 1000 | CC[C@H](C)[C@H](NC(=O)[C@@H]1CSSC[C@H](NC(=O)[C@@H](NC(C)=O)[C@@H](C)CC)C(=O)N[C@@H](C(C)C)C(=O)N[C@H](Cc2c[nH]c3ccccc23)C(=O)N[C@@H](CCC(N)=O)C(=O)N[C@@H](CC(=O)O)C(=O)N[C@@H](Cc2c[nH]c3ccccc23)C(=O)NCC(=O)N[C@@H](C)C(=O)N[C@@H](Cc2c[nH]cn2)C(=O)N[C@@H](CCCN=C(N)N)C(=O)N1)C(N)=O
0.8 | CC[C@H](C)[C@H](NC(C)=O)C(=O)N[C@H]1CSSC[C@@H](C(=O)N[C@H](C(=O)O)[C@@H](C)O)NC(=O)[C@H](CCCN=C(N)N)NC(=O)[C@H](Cc2c[nH]cn2)NC(=O)[C@H](C)NC(=O)CNC(=O)[C@H](Cc2c[nH]c3ccccc23)NC(=O)[C@H](CC(=O)O)NC(=O)[C@H](CCC(N)=O)NC(=O)[C@H](Cc2csc3ccccc23)NC(=O)[C@H](C(C)C)NC1=O
> 1000 | CC[C@H](C)[C@H](NC(C)=O)C(=O)N[C@H]1CSSC[C@@H](C(N)=O)NC(=O)[C@H](CCCNC(=N)N)NC(=O)[C@H](Cc2cnc[nH]2)NC(=O)[C@H](Cc2cnc[nH]2)NC(=O)CNC(=O)[C@H](Cc2c[nH]c3ccccc23)NC(=O)[C@@H](CC(=O)O)NC(=O)[C@H](CCC(N)=O)NC(=O)[C@H](C(C)C)NC(=O)[C@H](C(C)C)NC1=O
1.8 | CC[C@H](C)[C@H](NC(C)=O)C(=O)N[C@H]1CSSC[C@@H](C(=O)N[C@H](C(=O)O)[C@@H](C)O)NC(=O)[C@H](CCCN=C(N)N)NC(=O)[C@H](Cc2c[nH]cn2)NC(=O)[C@H](C)NC(=O)CNC(=O)[C@H](Cc2c[nH]c3ccccc23)NC(=O)[C@H](CC(=O)O)NC(=O)[C@H](CCC(N)=O)NC(=O)[C@H](Cc2cccc3ccccc23)NC(=O)[C@H](C(C)C)NC1=O
1.5 | CC[C@H](C)[C@H](NC(C)=O)C(=O)N[C@H]1CSSC[C@@H](C(=O)N[C@H](C(=O)O)[C@@H](C)O)NC(=O)[C@H](CCCNC(=N)N)NC(=O)[C@H](Cc2cnc[nH]2)NC(=O)[C@H](C)NC(=O)CNC(=O)[C@H](Cc2c[nH]c3ccccc23)NC(=O)[C@H](CC(=O)O)NC(=O)[C@H](CCC(N)=O)NC(=O)[C@H](C2Cc3ccccc3C2)NC(=O)[C@H](C(C)C)NC1=O
10.2 | CC[C@H](C)[C@H](NC(C)=O)C(=O)N[C@H]1CSSC[C@@H](C(=O)N[C@H](C(N)=O)[C@@H](C)O)NC(=O)[C@H](CCCN=C(N)N)NC(=O)[C@H](Cc2c[nH]cn2)NC(=O)[C@H](Cc2c[nH]cn2)NC(=O)CNC(=O)[C@H](Cc2c[nH]c3ccccc23)NC(=O)[C@H](CC(=O)O)NC(=O)[C@H](CCC(N)=O)NC(=O)[C@H](Cc2ccccc2)NC(=O)[C@H](C(C)C)NC1=O
0.6 | CC[C@H](C)[C@H](NC(C)=O)C(=O)N[C@H]1CSSC[C@@H](C(=O)N[C@H](C(N)=O)[C@@H](C)O)NC(=O)[C@H](CCCNC(=N)N)NC(=O)[C@H](Cc2cnc[nH]2)NC(=O)[C@H](C)NC(=O)CNC(=O)[C@H](Cc2c[nH]c3ccccc23)NC(=O)[C@H](CC(=O)O)NC(=O)[C@H](CCC(N)=O)NC(=O)[C@H](Cc2ccc(C(=O)c3ccccc3)cc2)NC(=O)[C@H](C(C)C)NC1=O
1.4 | CC[C@H](C)[C@H](NC(C)=O)C(=O)N[C@H]1CSSC[C@@H](C(=O)N[C@H](C(N)=O)[C@@H](C)O)NC(=O)[C@H](CCCN=C(N)N)NC(=O)[C@H](Cc2c[nH]cn2)NC(=O)[C@H](C)NC(=O)CNC(=O)[C@H](Cc2c[nH]c3ccccc23)NC(=O)[C@H](CC(=O)O)NC(=O)[C@H](CCC(N)=O)NC(=O)[C@H](C2Cc3ccccc3C2)NC(=O)[C@H](C(C)C)NC1=O
47.8 | CC[C@H](C)[C@H](NC(C)=O)C(=O)N[C@H]1CSSC[C@@H](C(=O)N[C@H](C(=O)O)[C@@H](C)O)NC(=O)[C@H](CCCN=C(N)N)NC(=O)[C@H](Cc2c[nH]cn2)NC(=O)[C@H](C)NC(=O)CNC(=O)[C@H](Cc2c[nH]c3ccccc23)NC(=O)[C@H](CC(=O)O)NC(=O)[C@H](CCC(N)=O)NC(=O)[C@H](CC2CCCCC2)NC(=O)[C@H](C(C)C)NC1=O
3.8 | CC[C@H](C)[C@H](NC(C)=O)C(=O)N[C@H]1CSSC[C@@H](C(=O)N[C@H](C(N)=O)[C@@H](C)O)NC(=O)[C@H](CCCN=C(N)N)NC(=O)[C@H](Cc2c[nH]cn2)NC(=O)[C@H](C)NC(=O)CNC(=O)[C@H](Cc2c[nH]c3ccccc23)NC(=O)[C@H](CC(=O)O)NC(=O)[C@H](CCC(N)=O)NC(=O)[C@H](Cc2ccc(O)cc2)NC(=O)[C@H](C(C)C)NC1=O
9.6 | CC[C@H](C)[C@H](NC(=O)[C@@H]1CSSC[C@H](NC(=O)[C@@H](NC(C)=O)[C@@H](C)CC)C(=O)N[C@@H](C(C)C)C(=O)N[C@@H](Cc2ccc(OP(=O)(O)O)cc2)C(=O)N[C@@H](CCC(N)=O)C(=O)N[C@@H](CC(=O)O)C(=O)N[C@@H](Cc2c[nH]c3ccccc23)C(=O)NCC(=O)N[C@@H](C)C(=O)N[C@@H](Cc2c[nH]cn2)C(=O)N[C@@H](CCCN=C(N)N)C(=O)N1)C(N)=O
> 1000 | CC[C@H](C)[C@H](NC(C)=O)C(=O)N[C@H]1CSSC[C@@H](C(N)=O)NC(=O)[C@H](CCCN=C(N)N)NC(=O)[C@H](Cc2c[nH]cn2)NC(=O)[C@H](Cc2c[nH]cn2)NC(=O)CNC(=O)[C@H](Cc2c[nH]c3ccccc23)NC(=O)[C@H](CC(=O)O)NC(=O)[C@@H](CCC(N)=O)NC(=O)[C@H](C(C)C)NC(=O)[C@H](C(C)C)NC1=O

Compound | IC50 [µM]
CC[C@H](C)[C@H](NC(C)=O)C(=O)N[C@H]1CSSC[C@@H](C(=O)N[C@H](C(N)=O)[C@@H](C)O)NC(=O)[C@H](CCCNC(=N)N)NC(=O)[C@H](Cc2c[nH]cn2)NC(=O)[C@H](Cc2c[nH]cn2)NC(=O)CNC(=O)[C@H](Cc2c[nH]c3ccccc23)NC(=O)[C@H](CC(=O)O)NC(=O)[C@H](CCC(N)=O)NC(=O)[C@H](C(C)C)NC(=O)[C@H](C(C)C)NC1=O | 32
CC[C@H](C)[C@H](NC(C)=O)C(=O)N[C@H]1CSSC[C@@H](C(=O)N[C@H](C(=O)O)[C@@H](C)O)NC(=O)[C@H](CCCN=C(N)N)NC(=O)[C@H](Cc2c[nH]cn2)NC(=O)[C@H](C)NC(=O)CNC(=O)[C@H](Cc2c[nH]c3ccccc23)NC(=O)[C@H](CC(=O)O)NC(=O)[C@H](CCC(N)=O)NC(=O)[C@H](CC2CNc3ccccc32)NC(=O)[C@H](C(C)C)NC1=O (some centres undefined) | 10.2
